{
  "source": "patent US5372813A",
  "about": "(priority 1992, dated 1994)",
  "key": {"[1]": {"system": "depression", "details": "patients, in words; cited from earlier work"}, "[2]": {"molecular_target": "T1, 5-HT (serotonin) reuptake complex (Rattus norvegicus, UniProt P31652)", "T1 construct": "Rat cortical brain homogenates were incubated with 3H-paroxetine; from tissue; host or cells: rat cortical brain homogenates", "T1 sequence (P31652 whole entry, one chain of several)": "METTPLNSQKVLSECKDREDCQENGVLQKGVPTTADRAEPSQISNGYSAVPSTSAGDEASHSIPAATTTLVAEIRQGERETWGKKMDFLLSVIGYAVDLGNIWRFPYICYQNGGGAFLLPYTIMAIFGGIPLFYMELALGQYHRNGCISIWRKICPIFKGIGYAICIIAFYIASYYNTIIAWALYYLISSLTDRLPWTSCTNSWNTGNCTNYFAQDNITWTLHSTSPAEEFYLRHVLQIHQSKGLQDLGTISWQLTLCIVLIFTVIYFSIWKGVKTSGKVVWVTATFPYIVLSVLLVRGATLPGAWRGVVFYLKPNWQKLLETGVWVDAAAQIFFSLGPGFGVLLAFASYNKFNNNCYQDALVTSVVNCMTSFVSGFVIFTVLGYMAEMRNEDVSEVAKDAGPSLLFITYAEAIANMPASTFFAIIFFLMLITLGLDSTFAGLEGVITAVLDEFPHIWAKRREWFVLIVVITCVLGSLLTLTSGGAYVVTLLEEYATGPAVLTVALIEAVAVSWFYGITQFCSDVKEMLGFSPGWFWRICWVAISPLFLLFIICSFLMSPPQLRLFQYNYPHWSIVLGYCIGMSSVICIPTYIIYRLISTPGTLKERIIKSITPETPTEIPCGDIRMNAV", "test": "competition with 3H-paroxetine for the 5-HT reuptake complex in rat cortical brain homogenates (Ki)", "type": "binding"}, "[3]": {"molecular_target": "T1, 5-HT (serotonin) reuptake complex", "test": "competition with 3H-paroxetine for the 5-HT reuptake complex in rat cortical brain homogenates (Ki)", "type": "binding", "details": "Ki of analogue relative to Ki of 6-NQP", "procedure": "A potency ratio was also determined by comparing the Ki of the analogue to the Ki experimentally determined for the unsubstituted 6-Nitroquipazine."}, "[4]": {"system": "5-HT reuptake complex", "test": "ex vivo autoradiography of rat brain", "details": "25 μCi, 2, 6 and 12 h post injection, in words", "procedure": "Ex vivo autoradiography was performed on rats injected with 25 μCi 5-^125 I-6-NQP and killed at 2, 6 and 12 h post injection."}, "[5]": {"test": "metabolite determination in brain and thyroid radioactivity after injection of 5-125I-6-NQP", "type": "in vivo, rat", "procedure": "The brains of rats which had been injected with 25 μCi of 5-^125 I-6-NQP 6 h earlier were removed, homogenized, and repeatedly extracted with ethyl acetate and added cold 5-I-6-NQP carrier. The ethyl acetate fractions were pooled and evaporated, and the concentrate subject to TLC and HPLC (with fraction collection) analyses to determine metabolites in the brain."}, "[6]": {"system": "serotonin uptake system", "test": "competition of known ligands against 5-125I-6-NQP in membrane preparation", "type": "binding, rat", "details": "versus e.g. sertraline and fluoxetine, in words", "procedure": "In the second set of experiments, competition experiments were performed with known agonist and antagonists to the serotonin uptake system, post synaptic serotonin receptors, and a receptors of other brain receptor systems. These compounds were incubated against 5-^125 I-6-NQP to determine the concentration needed to displace 5-^125 I-6-NQP from the membrane preparations. The strongest competitors were those specific for the serotonin uptake system, (FIG. 2)."}, "[7]": {"molecular_target": "serotonin uptake sites (Rattus norvegicus, UniProt P31652)", "sequence (P31652 whole entry)": "as the sequence (P31652 whole entry, one chain of several) above", "test": "Scatchard saturation binding of 5-125I-6-NQP to isolated rat brain membranes, control and PCA-treated", "details": "PCA-treated versus control rats, in vitro, in words"}, "[8]": {"test": "in vivo brain uptake, clearance and regional distribution of 5-125I-6-NQP after i.v. injection", "details": "rat", "procedure": "Whole body distribution studies were performed in rats in accordance with the method of Carl Mathis, et al described in Nuclear Medicine and Biology 19: 571-588 (1992).\nThe ratios of regional activity concentrations to cerebellar concentrations are plotted in the left panel of FIG. 4. […] Also plotted in the right panel of FIG. 4 is the time course of specific binding (total regional radioactivity cerebellar radioactivity) in a representative tissue."}, "[9]": {"system": "5-HT reuptake complex", "test": "in vivo blocking of 5-125I-6-NQP brain binding by co-injected drugs", "parameters": "species or system rat", "details": "co-injection, LSD 0.5 mg/kg; GBR-12909 and DMI 2 mg/kg, in words", "source_text": "A critical test of the in vivo behavior of the radioligand is the ability to block its specific binding."}, "[10]": {"system": "5-HT reuptake site", "test": "neurotoxin (PCA) pretreatment study, 5-125I-6-NQP binding", "type": "in vivo, rat", "details": "PCA 10 mg/kg for 2 days", "from_the_text": "The in vivo results were consistent with the reduction in Bmax measured by in vitro binding methods and indicated up to a 90% reduction in 5-HT reuptake site densities in lesioned rats."}, "[11]": {"details": "rat cortical brain homogenates, 3H-paroxetine displacement, read-out: In vitro Inhibition Constants (Ki) for the 5-HT Reuptake Site"}},
  "note": "Read-outs that look alike come from different tables or passages of the source.",
  "data": [
    {"compound": "CNCCC(Oc1ccc(C(F)(F)F)cc1)c1ccccc1", "note": "(racemic) [fluoxetine, (±)-N--Methyl-3-Phenyl-3-[(ααα-trifluoro-p-tolyl)oxy]propylamine]", "values": [
      {"measurement": "anti-depressant efficacy compared with certain tricyclic amine drugs", "setting": "[1]", "value": "equal anti-depressant efficacy"},
      {"measurement": "total side effects and dropouts compared with certain tricyclic amine drugs", "setting": "[1]", "value": "fewer total side effects and dropouts"}
    ]},
    {"compound": "O=[N+]([O-])c1ccc2nc(N3CCNCC3)c(Br)cc2c1", "note": "[3-Br-6-NQP, 3-Bromo-6-nitro-2-piperazinylquinoline]", "values": [
      {"measurement": "Ki", "setting": "[2]", "value": "9.6 ± 2.6", "unit": "nM"},
      {"measurement": "Potency Ratio", "setting": "[3]", "value": 42}
    ]},
    {"compound": "O=[N+]([O-])c1ccc2nc(N3CCNCC3)cc(Br)c2c1", "note": "[4-Br-6-NQP]", "values": [
      {"measurement": "Ki", "setting": "[2]; [11]", "value": "200 ± 80", "unit": "nM"},
      {"measurement": "Potency Ratio", "setting": "[3]", "value": 870}
    ]},
    {"compound": "O=[N+]([O-])c1ccc2nc(N3CCNCC3)ccc2c1Br", "note": "[5-Br-6-NQP, 5-Bromo-6-nitro-2-piperazinylquinoline]", "values": [
      {"measurement": "Ki", "setting": "[2]", "value": "0.13 ± 0.02", "unit": "nM"},
      {"measurement": "Potency Ratio", "setting": "[3]", "value": 0.57}
    ]},
    {"compound": "O=[N+]([O-])c1ccc2nc(N3CCNCC3)ccc2c1[125I]", "note": "[5-^125 I-6-NQP, [^125 I]5-Iodo-6-nitro-2-piperazinylquinoline]", "values": [
      {"measurement": "binding distribution in rat brain by ex vivo autoradiography", "setting": "[4]", "value": "consistent with the known neuroanatomical distribution of the 5-HT reuptake complex"},
      {"measurement": "remaining at 6 h", "setting": "[5]; 25 uCi, rat brain, 25 μCi, 6 h, read-out: unmetabolized radioligand in brain (organic phase radioactivity)", "value": "> 98", "unit": "%"},
      {"measurement": "metabolic deiodination in vivo", "setting": "[5]; rat, 6 h, in words", "value": "metabolic deiodination of 5-^125 I-6-NQP occurs in vivo in rats"},
      {"measurement": "radioactivity in the thyroid gland", "setting": "[5]; rat, 6 h post injection", "value": "11 % of the injected dose"},
      {"measurement": "relative potency for the uptake site versus other serotonin uptake ligands", "setting": "[6]", "value": "greater than that observed for other serotonin uptake ligands"},
      {"measurement": "affinity (Kd) after PCA treatment", "setting": "[7]", "value": "little change in the affinity (Kd)"},
      {"measurement": "affinity (Kd) after PCA treatment", "setting": "[7]; listed as INQUIP", "value": "without change in affinity"},
      {"measurement": "total binding (Bmax) after PCA treatment", "setting": "[7]; listed as INQUIP", "value": "enormous reduction in binding after PCA treatment"},
      {"measurement": "whole brain accumulation", "setting": "[8]; 25 μCi (11 pmoles) i.v., 5 min post injection", "value": "1.9 % of the injected dose"},
      {"measurement": "ratios of regional to cerebellar activity concentrations", "setting": "[8]; i.v., 12 h period post injection, in words", "value": "increase in a nearly linear manner over the 12 h period post injection"},
      {"measurement": "brain penetration", "setting": "[8]; i.v., in words", "value": "good brain penetration"},
      {"measurement": "clearance of nonspecific binding (cerebellum) versus regions of high 5-HT innervation", "setting": "[8]; i.v., in words", "value": "more rapid than that of radioactivity clearance from brain regions containing high concentrations of 5-HT innervation"},
      {"measurement": "loss of activity from the brain", "setting": "[8]; i.v., over 12 h, in words", "value": "slow steady loss of activity from the brain over 12 h"}
    ]},
    {"compound": "O=[N+]([O-])c1ccc2nc(N3CCNCC3)ccc2c1", "note": "[6-NQP, 6-nitro-2-N-piperazinylquinoline, reference compound]", "values": [
      {"measurement": "Ki", "setting": "[2]; [11]", "value": "0.23 ± 0.06", "unit": "nM"},
      {"measurement": "Potency Ratio", "setting": "[3]", "value": 1}
    ]},
    {"compound": "O=[N+]([O-])c1cc2ccc(N3CCNCC3)nc2cc1Br", "note": "[7-Br-6-NQP, 7-Bromo-6-nitro-2-piperazinylquinoline]", "values": [
      {"measurement": "Ki", "setting": "[2]", "value": "4.1 ± 1.5", "unit": "nM"},
      {"measurement": "Potency Ratio", "setting": "[3]", "value": 18}
    ]},
    {"compound": "O=[N+]([O-])c1cc(Br)c2nc(N3CCNCC3)ccc2c1", "note": "[8-Br-6-NQP, 8-Bromo-6-nitro-2-piperazinylquinoline]", "values": [
      {"measurement": "Ki", "setting": "[2]", "value": "18 ± 3", "unit": "nM"},
      {"measurement": "Potency Ratio", "setting": "[3]", "value": 78}
    ]},
    {"compound": "Fc1ccc(C(OCCN2CCN(CCCc3ccccc3)CC2)c2ccc(F)cc2)cc1", "note": "[GBR-12909]", "values": [
      {"measurement": "radioactivity concentrations in brain regions", "setting": "[9]", "value": "little effect on radioactivity concentrations in these regions"}
    ]},
    {"compound": "CCN(CC)C(=O)[C@@H]1C=C2c3cccc4[nH]cc(c34)C[C@H]2N(C)C1", "note": "[LSD]", "values": [
      {"measurement": "radioactivity concentrations in brain regions", "setting": "[9]", "value": "little effect on radioactivity concentrations in these regions"}
    ]},
    {"compound": "CC(N)Cc1ccc(Cl)cc1", "note": "(stereo not shown) [PCA, p-chloroamphetamine]", "values": [
      {"measurement": "specifically bound radioactivity after PCA pretreatment", "setting": "[10]; i.v. 5-125I-6-NQP two weeks later, in words", "value": "regionally selective reduction of specifically bound radioactivity"},
      {"measurement": "reduction in 5-HT reuptake site densities in lesioned rats", "setting": "[10]; two weeks before", "value": "≤ 90", "unit": "%"}
    ]}
  ]
}
